Measurements as given in patent US9440933B2, “Azole derivative, method for producing same, intermediate compound, and agricultural or horticultural chemical agent and industrial material protecting agent” (KUREHA CORPORATION, priority 2011, dated 2016).

Legend:
[1] = test system: Rice blast-causing microbe (Pyricularia oryzae); format: cell-based; settings: 50 mg/L
[2] = test system: wheat leaf rust-causing microbe; assay: Wheat leaf rust-controlling activity (foliar spray, pot test); format: in vivo, Puccinia recondita; settings: Concentration 25 g/ha; wettable powder sprayed on wheat (Norin No. 61), 9 to 14 days after inoculation
[3] = test system: Cucumber Fusarium wilt-causing microbe (Fusarium oxysporum); assay: Antimicrobial activity to various pathogenic microbes: F.c; settings: 50 mg/L
[4] = test system: Apple alternaria blotch-causing microbe (Alternaria alternata); assay: Antimicrobial activity to various pathogenic microbes: A.m; settings: 50 mg/L
Procedure: (§1) An inventive compound was dissolved in dimethylsulfoxide 2 ml. The solution 0.6 ml was added to a PDA medium (potato-dextrose-agar medium) 60 ml at around 60° C.
(§2) A flat plate containing a test microbe (wheat leaf blight-causing microbe) cultured separately was punched into pieces with a cork borer having a diameter of 4 mm and the circular plate obtained was placed on the flat plate media containing the chemical described above. The plates were cultured at 25° C. for 14 days after inoculation and the diameter of the microbial colony was determined. Hyphal expansion-inhibiting rate was calculated according to the following equation: R=100(dc−dt)/dc (wherein, R: hyphal expansion-inhibiting rate (%), dc: diameter of microbial colony on non-treated flat plate, dt: diameter of microbial colony on chemically-treated flat plate).
(§3) In this Test Example, the antimicrobial activity of the inventive compounds to various plant disease-causing fungi and industrial material-eroding microorganisms was studied by the method described in Example 1.
(§4) The results thus obtained were evaluated in 5 stages according to the criteria below:
Apple alternaria blotch-causing microbe (Alternaria alternata) A.m

[5] = test system: Barley loose smut-causing microbe (Ustilago nuda); assay: Antimicrobial activity to various pathogenic microbes: U.n; settings: 50 mg/L
Procedure: as §1
(§5) The plates were cultured at 25° C. for 14 days after inoculation and the diameter of the microbial colony was determined. Hyphal expansion-inhibiting rate was calculated according to the following equation: R=100(dc−dt)/dc (wherein, R: hyphal expansion-inhibiting rate (%), dc: diameter of microbial colony on non-treated flat plate, dt: diameter of microbial colony on chemically-treated flat plate).
as §4
Barley loose smut-causing microbe (Ustilago nuda) U.n

[6] = test system: Gray mold-causing microbe (Botrytis cinerea); assay: Antimicrobial activity to various pathogenic microbes: B.c; settings: 50 mg/L
Procedure: as §1, §2, §3, §4
Gray mold-causing microbe (Botrytis cinerea) B.c

[7] = test system: Wheat eye spot-causing microbe (Pseudocercoporella herpotrichoides); assay: Antimicrobial activity to various pathogenic microbes: P.h; settings: 50 mg/L
Procedure: as §1, §5, §4
Wheat eye spot-causing microbe (Pseudocercoporella herpotrichoides) P.h

[8] = test system: Rice bakanae disease-causing microbe (Gibberella fujikuroi); assay: Antimicrobial activity to various pathogenic microbes: G.f; settings: 50 mg/L
Procedure: as §1, §2, §4

[9] = test system: Wheat fusarium blight-causing microbe (Fusarium graminearum); format: cell-based; settings: 50 mg/L
[10] = test system: Barley scald-causing microbe (Rhynchosporium secalis); assay: Antimicrobial activity to various pathogenic microbes: R.sec; settings: 50 mg/L
Procedure: as §1, §2, §3, §4
Barley scald-causing microbe (Rhynchosporium secalis) R.sec

[11] = test system: Sclerotinia rot-causing microbe (Sclerotinia sclerotiorum); assay: Antimicrobial activity to various pathogenic microbes: S.s; settings: 50 mg/L
[12] = test system: wheat leaf blight-causing microbe; assay: Antimicrobial activity to wheat leaf blight-causing microbe (PDA plate, hyphal expansion inhibition); format: cell-based, Septoria tritici; settings: Concentration 50 mg/L, PDA medium, 25° C., 14 days; for inhibition at 50 µg/mL: 336 h, read-out: Growth inhibition
Procedure: In this Test Example, antimicrobial activity of the inventive compounds to wheat leaf blight-causing microbe was determined and compared with that of the comparative compound (1).

[13] = test system: Wheat glume blotch-causing microbe (Phaeosphaeria nodorum); assay: Antimicrobial activity to various pathogenic microbes: P.n; settings: 50 mg/L
Procedure: as §1, §2, §3, §4
Wheat glume blotch-causing microbe (Phaeosphaeria nodorum) P.n

Structure (SMILES)	Growth inhibition (hyphal expansion-inhibiting rate grade) P.o [1]	Controlling index [2]	Growth inhibition (hyphal expansion-inhibiting rate grade) F.c [3]	Growth inhibition (hyphal expansion-inhibiting rate grade) A.m [4]	Growth inhibition (hyphal expansion-inhibiting rate grade) U.n [5]	Growth inhibition (hyphal expansion-inhibiting rate grade) B.c [6]	Growth inhibition (hyphal expansion-inhibiting rate grade) P.h [7]	Growth inhibition (hyphal expansion-inhibiting rate grade) G.f [8]	Growth inhibition (hyphal expansion-inhibiting rate grade) F.g [9]	Growth inhibition (hyphal expansion-inhibiting rate grade) R.sec [10]	Growth inhibition (hyphal expansion-inhibiting rate grade) S.s [11]	Growth inhibition [12]	Growth inhibition (hyphal expansion-inhibiting rate grade) P.n [13]	inhibition at 50 µg/mL [12]
C#CCOC(=O)[C@]1(C)CC[C@H](Cc2ccc(Cl)cc2)[C@@]1(O)Cn1cncn1 (racemic) [Compound I-135, 2-propynyl-(1RS,2SR,3RS)-3-(4-chlorobenzyl)-2-hydroxy-1-methyl-2-(1H-1,2,4-triazol-1-ylmethyl)cyclopentanecarboxylate]	5 (hyphal expansion-inhibiting rate: 80% or more)	5 (81 to 100)	5 (hyphal expansion-inhibiting rate: 80% or more)	5 (hyphal expansion-inhibiting rate: 80% or more)	5 (hyphal expansion-inhibiting rate: 80% or more)	5 (hyphal expansion-inhibiting rate: 80% or more)	5 (hyphal expansion-inhibiting rate: 80% or more)	5 (hyphal expansion-inhibiting rate: 80% or more)	5 (hyphal expansion-inhibiting rate: 80% or more)	5 (hyphal expansion-inhibiting rate: 80% or more)	5 (hyphal expansion-inhibiting rate: 80% or more)	5 (hyphal expansion-inhibiting rate: 80% or more)	5 (hyphal expansion-inhibiting rate: 80% or more)	–
C=CCOC(=O)[C@]1(C)CC[C@@H](Cc2ccc(Cl)cc2)[C@]1(O)Cn1cncn1 (racemic) [Compound I-4, allyl-(1RS,2RS,3SR)-3-(4-chlorobenzyl)-2-hydroxy-1-methyl-2-(1H-1,2,4-triazol-1-ylmethyl)cyclopentanecarboxylate]	5 (hyphal expansion-inhibiting rate: 80% or more)	5 (81 to 100)	5 (hyphal expansion-inhibiting rate: 80% or more)	5 (hyphal expansion-inhibiting rate: 80% or more)	5 (hyphal expansion-inhibiting rate: 80% or more)	5 (hyphal expansion-inhibiting rate: 80% or more)	5 (hyphal expansion-inhibiting rate: 80% or more)	5 (hyphal expansion-inhibiting rate: 80% or more)	5 (hyphal expansion-inhibiting rate: 80% or more)	5 (hyphal expansion-inhibiting rate: 80% or more)	5 (hyphal expansion-inhibiting rate: 80% or more)	–	5 (hyphal expansion-inhibiting rate: 80% or more)	> 80%
COC(=O)[C@@]1(CCl)CC[C@H](Cc2ccc(F)cc2)[C@@]1(O)Cn1cncn1 (racemic) [Compound I-78, methyl-(1RS, 2SR,3RS)-3-(4-fluorobenzyl)-1-chloromethyl-2-hydroxy-2-(1H-1,2,4-triazol-1-ylmethyl)cyclopentanecarboxylate]	5 (hyphal expansion-inhibiting rate: 80% or more)	5 (81 to 100)	5 (hyphal expansion-inhibiting rate: 80% or more)	5 (hyphal expansion-inhibiting rate: 80% or more)	5 (hyphal expansion-inhibiting rate: 80% or more)	5 (hyphal expansion-inhibiting rate: 80% or more)	5 (hyphal expansion-inhibiting rate: 80% or more)	5 (hyphal expansion-inhibiting rate: 80% or more)	5 (hyphal expansion-inhibiting rate: 80% or more)	5 (hyphal expansion-inhibiting rate: 80% or more)	5 (hyphal expansion-inhibiting rate: 80% or more)	–	5 (hyphal expansion-inhibiting rate: 80% or more)	> 80%
